Like-named read-outs stand apart in the source and are kept apart here.
Legend:
cucumber downy mildew [1] = test: Test on preventive effect against cucumber downy mildew; format: in vivo, Cucumber (cultivar: Sagamihanshirofushinari)
Procedure: Cucumber (cultivar: Sagamihanshirofushinari) was cultivated in a polyethylene pot having a diameter of 7.5 cm, and when the cucumber reached two-leaf stage, a drug solution having the respective test compounds adjusted to the predetermined concentrations (applied amount: 1000 L/ha), was applied by means of a spray gun. After the applied solution dried, the cucumber was sprayed and inoculated with a suspension of spores of cucumber downy mildew and kept in a humidified chamber at 20° C. for 20 hours. Thereafter, the cucumber was kept in a thermostatic chamber at 20° C. for 7 days, whereupon the lesion area rate was obtained. Here, the lesion area rate is a value obtained in such a manner that lesion area of Downy Mildew of specimen leaves was obtained by visual examination, and its ratio to the total area of specimen leaves is shown by percent.
(§1) The lesion area ratio in non-treated area was obtained in the same manner as in the treated area except that instead of the drug solution, water was applied by means of a spray gun.
Further, a theoretical value can be calculated by the Colby formula. If the experimental value is lower than the theoretical value by the Colby formula, the fungicidal composition for agricultural or horticultural use of the present invention has a synergistic effect for controlling the plant disease. In this context, the theoretical values by the Colby formula are also shown in brackets ( ) in Tables 1 and 2.

tomato late blight [2] = format: in vivo, Tomato (cultivar: Ponderosa)
cucumber downy mildew [3] = test: Test on curative effect against cucumber downy mildew; format: in vivo, Cucumber (cultivar: Sagamihanshirofushinari)
Procedure: Cucumber (cultivar: Sagamihanshirofushinari) was cultivated in a polyethylene pot having a diameter of 7.5 cm, and when it reached two-leaf stage, the cucumber was sprayed and inoculated with a suspension of spores of cucumber downy mildew and kept in a humidified chamber at 20° C. for 20 hours. Then, after drying the crop plant, a drug solution having the respective test compounds adjusted to the predetermined concentrations, was applied in a sufficient amount (20 ml) by means of a spray gun. After the sprayed solution dried, it was kept in a thermostatic chamber at 20° C. for 5 days, whereupon the lesion area ratio was obtained. The results are shown in is Tables 3 and 4.
as §1
Further, a theoretical value can be calculated by the Colby formula. If the experimental value is lower than the theoretical value by the Colby formula, the fungicidal composition for agricultural or horticultural use of the present invention has a synergistic effect for controlling the plant disease. In this context, the theoretical values by the Colby formula are also shown in brackets ( ) in Tables 3 and 4.

tomato late blight [4] = format: in vivo, Tomato (cultivar: Ponderosa); conditions: Test Example 4 (curative)
Grape Downy Mildew = test: Test on preventive effect against grape downy mildew (leaf disks test); format: in vivo, grapes (cultivar: Neomuscat)
Excerpt: Leaf disks having a diameter of 1 cm were punched out with leaf puncher from leaves of grapes (cultivar: Neomuscat), and a drug solution having the respective test compounds adjusted to the predetermined concentrations (applied amount: 500 L/ha), was applied to the leaf disks by means of an indoor spray equipment. After the applied solution dried, the leaf disks were transferred to petri dishes having a diameter of 3 cm, a suspension of zoosporangium of Grape Downy Mildew was dropwise applied, and the leaf disks were inoculated. They were kept in a chamber at 20° C. for 10 days. Then, the disease severity index of each disk was investigated by the following standards, and the disease severity was obtained by the following formula.
The disease severity in non-treated area was obtained in the same manner as in the treated area except that instead of the drug solution, water was applied by means of an auto sprayer.
Disease outbreak index 0: No sporogenesis is observed.
Disease severity index 1: The sporogenesis area is less than 10% of the drop area.
Disease severity index 2: The sporogenesis area is from 10% to less than 50% of the drop area.
Disease severity index 3: The sporogenesis area is from 50% to less than 90% of the drop area.
Disease severity index 4: The sporogenesis area is at least 90% of the drop area.
Disease severity=[(0×A+1×B+2×C+3×D+4×E)/{4×(A+B+C+D+E)}]×100
where A is the number of disks with disease severity index 0, B is the number of disks with disease severity index 1, C is the number of disks with disease severity index 2, D is the number of disks with disease severity index 3, and E is the number of disks with disease severity index 4.
Further, a theoretical value can be calculated by the Colby formula. If the experimental value is lower than the theoretical value by the Colby formula, the fungicidal composition for agricultural or horticultural use of the present invention has a synergistic effect for controlling the plant disease. In this context, the theoretical values by the Colby formula are also shown in brackets ( ) in Tables 9 and 10.

For Cc1ccc(-c2c(Cl)nc(C#N)n2S(=O)(=O)N(C)C)cc1 [Compound No. 1, 4-chloro-2-cyano-1-dimethylsulfamoyl-5-(4-methylphenyl) imidazole], the “Lesion area ratio in the test on preventive effect against cucumber downy mildew” value (cucumber downy mildew [1]; Compound No. 1 0.2 ppm alone) was 10%, the “Disease severity in the test on preventive effect against tomato late blight” value (“Disease severity … against tomato late blight” below) (tomato late blight [2]; Compound No. 1 1.6 ppm alone) was 19 and the “Disease severity … against tomato late blight” value (tomato late blight [2]; Compound No. 1 6.3 ppm alone) was 12. The “Lesion area ratio in the test on curative effect against cucumber downy mildew” value (cucumber downy mildew [3]; Compound No. 1 50 ppm alone) was 100%, the “Lesion area ratio in the test on curative effect against cucumber downy mildew” value (cucumber downy mildew [3]; Compound No. 1 200 ppm alone) was 100% and the “Disease severity … against tomato late blight” value (tomato late blight [4]; Compound No. 1 50 ppm alone) was 100. The “Disease severity … against tomato late blight” value (tomato late blight [4]; Compound No. 1 400 ppm alone) was 94, the “Disease severity in the test on preventive effect against grape downy mildew” value (shortened to “Disease severity … against grape downy mildew”) (Grape Downy Mildew; Compound No. 1 0.098 ppm alone) was 100 and the “Disease severity … against grape downy mildew” value (Grape Downy Mildew; Compound No. 1 0.39 ppm alone) was 40.

In the case of COC(=O)[C@@H](C)N(C(=O)Cc1ccccc1)c1c(C)cccc1C [Benalaxyl-M], the “Lesion area ratio in the test on preventive effect against cucumber downy mildew” value (cucumber downy mildew [1]; Benalaxyl-M 25 ppm alone) is reported as 100%, the “Disease severity … against tomato late blight” value (tomato late blight [2]; Benalaxyl-M 25 ppm alone) is reported as 100 and the “Disease severity … against tomato late blight” value (tomato late blight [2]; Benalaxyl-M 100 ppm alone) is reported as 100. For the same compound, the “Lesion area ratio in the test on curative effect against cucumber downy mildew” value (cucumber downy mildew [3]; Benalaxyl-M 400 ppm alone) was 100%, the “Disease severity … against tomato late blight” value (tomato late blight [4]; Benalaxyl-M 50 ppm alone) was 94 and the “Disease severity … against tomato late blight” value (tomato late blight [4]; Benalaxyl-M 200 ppm alone) was 75. For the same compound, the “Disease severity … against grape downy mildew” value (Grape Downy Mildew; Benalaxyl-M 0.024 ppm alone) was 100.

In the case of COc1ccc(/C(=C\C(=O)N2CCOCC2)c2ccc(F)cc2)cc1OC [Flumorph], the “Lesion area ratio in the test on preventive effect against cucumber downy mildew” value (cucumber downy mildew [1]; Flumorph 12.5 ppm alone) is reported as 20%, the “Disease severity … against tomato late blight” value (tomato late blight [2]; Flumorph 6.3 ppm alone) is reported as 100 and the “Disease severity … against tomato late blight” value (tomato late blight [2]; Flumorph 12.5 ppm alone) is reported as 100. The “Lesion area ratio in the test on curative effect against cucumber downy mildew” value (cucumber downy mildew [3]; Flumorph 400 ppm alone) was 90%, the “Disease severity … against tomato late blight” value (tomato late blight [4]; Flumorph 50 ppm alone) was 100 and the “Disease severity … against tomato late blight” value (tomato late blight [4]; Flumorph 200 ppm alone) was 37. The “Disease severity … against grape downy mildew” value (Grape Downy Mildew; Flumorph 1.6 ppm alone) was 40.

— US20090163567A1 (priority 2005, published 2009)
